pIC50, pKi: −log10 of the molar value. Peptide text beside a SMILES is read from it.
Legend:
[1] = biological target: T1, Solute carrier family 15 member 1 (Homo sapiens, UniProt P46059); experiment: Concentration required to inhibit the maximum [14C]Gly-Sar uptake by human Intestinal peptide transporter PepT1 in Caco-2 cells; type: cell-based
T1 sequence (P46059 whole entry): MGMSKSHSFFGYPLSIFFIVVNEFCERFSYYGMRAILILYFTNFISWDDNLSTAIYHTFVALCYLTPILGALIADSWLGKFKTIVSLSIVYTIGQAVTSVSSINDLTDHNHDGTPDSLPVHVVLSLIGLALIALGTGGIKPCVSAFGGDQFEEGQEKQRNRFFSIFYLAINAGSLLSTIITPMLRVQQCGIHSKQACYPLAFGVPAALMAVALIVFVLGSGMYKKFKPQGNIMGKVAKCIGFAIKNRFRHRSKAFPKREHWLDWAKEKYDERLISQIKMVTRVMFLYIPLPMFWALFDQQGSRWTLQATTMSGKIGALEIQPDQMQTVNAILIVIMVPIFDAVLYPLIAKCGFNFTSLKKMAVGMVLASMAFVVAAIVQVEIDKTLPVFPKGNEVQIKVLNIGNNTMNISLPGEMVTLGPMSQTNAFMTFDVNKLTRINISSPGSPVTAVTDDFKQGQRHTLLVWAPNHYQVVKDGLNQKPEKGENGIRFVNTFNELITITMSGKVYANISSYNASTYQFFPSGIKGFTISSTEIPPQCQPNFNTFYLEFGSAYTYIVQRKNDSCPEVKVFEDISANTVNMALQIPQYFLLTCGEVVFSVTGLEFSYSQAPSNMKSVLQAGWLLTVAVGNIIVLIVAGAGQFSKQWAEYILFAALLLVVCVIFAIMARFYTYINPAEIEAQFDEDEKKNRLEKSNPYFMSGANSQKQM

[2] = biological target: T1, Solute carrier family 15 member 1; experiment: Affinity fo the compound against human Intestinal peptide transporter PepT1 in Caco-2 cells was measured as inhibition of [14C]Gly-Sar uptake; type: cell-based
[3] = Concentration required to inhibit the maximum [14C]Gly-Sar uptake by Renal peptide transporter PepT2 in SKPT cells; type: cell-based; conditions: Rattus norvegicus
[4] = Affinity against Renal peptide transporter PepT2 in SKPT cells was measured by the inhibition of [14C]Gly-Sar uptake; type: cell-based, Rattus norvegicus

| Structure (SMILES) | pIC50 [1] | pKi [2] | pIC50 [3] | pKi [4] |
| --- | --- | --- | --- | --- |
| N[C@@H](Cc1ccccc1)[C@@H](O)/C=C/C(=O)O | 1.39 | 1.40 | 2.80 | 2.87 |
| CC1=C(C(=O)O)N2C(=O)[C@@H](NC(=O)[C@H](N)c3ccccc3)[C@H]2SC1 [CEPHALEXIN ANHYDROUS] |  |  | 4.38 | 4.45 |
| N[C@@H](Cc1ccccc1)[C@H](O)CCC(=O)O |  |  | 2.06 | 2.13 |
| N[C@@H](Cc1ccccc1)[C@@H](O)CCC(=O)O |  |  | 2.09 | 2.16 |
| N[C@@H](Cc1ccccc1)C(=O)CCC(=O)O | 3.40 | 3.40 | 4.65 | 4.73 |
| N[C@@H](Cc1ccccc1)C(=O)NCC(=O)O (H-Phe-Gly-OH) | 3.70 | 3.70 | 4.76 | 4.84 |
| N[C@@H](Cc1ccccc1)[C@H](O)/C=C/C(=O)O | 1.57 | 1.58 | 2.39 | 2.46 |

Reference: ChEMBL document CHEMBL1149319, “Phe-Gly dipeptidomimetics designed for the di-/tripeptide transporters PEPT1 and PEPT2: synthesis and biological investigations” (J Med Chem, 2004)
